Reference: patent US6043367A, “Proactive antitumor compounds” (priority 1998, dated 2000)

Assays:
[1] = stability of the proactive compound in 95% human plasma at 37° C., HPLC; type: in vitro ADME; details: 145 μM (100 μg/ml), CO2 atmosphere, up to 48 hours, as compared with compound 23
Protocol: The stability of the proactive compound in serum can be evaluated by using high performance liquid chromatography (HPLC) analysis. […] Aliquots are taken out from the serum solution after every pre-designed period of time, e.g., every other hour. The proteins present in serum are precipitated, acidified, and dried under reduced pressure. The dried compound is dissolved in the HPLC buffer and then analyzed by HPLC.
(§1) 20 μl samples made from compounds 22 and 17 (moiety (3) of compound 22) were injected onto a Hypersil column (RP-18, 4.6×250 mm, 5 μm) with 45% methanol and 25 mM phosphate buffer (pH 2.5) as mobile phase at a flow rate of 1 ml/min. Eluted components were detected by fluorescence (excitation: 397 nm, emission: 482 nm) on a Gilson fluorometer. Peak areas were analyzed with Beckman system Gold software. The retention times for compound 17 and compound 22 were 9.5 and 15.8 minutes, respectively.

[2] = system: CaSki human cervical carcinoma cells; assay: in vitro cytotoxicity: [3H] leucine incorporation (protein synthesis) in CaSki cells
Protocol: One way to evaluate the in vitro cytotoxic activities of a proactive compound is by incubating the tested compound with cancerous cells in serum at 37° C. for a certain period of time. After incubation, the cells can be washed and pulsed with [^3 H] leucine in leucine-free medium for another period of time. The radioactivity of trichloroacetic acid-precipitated protein, an indication of the level of protein synthesis of the cell, can then be measured.
CaSki human cervical carcinoma cells were plated overnight in 96-well microtiter plates at 18,000 cells/well. Serial dilution of (i) compound 17 alone, (ii) compound 22 with β-glucuronidase, and (iii) compound 22 alone, in medium containing 5% fetal calf serum were added to cells for 96 hours at 37° C. Cells were subsequently washed once with sterile PBS, and then pulsed for 2 hours with [^3 H] leucine (1 μCi/well) in leucine-free medium. The radioactivity of trichloroacetic acid-precipitated protein was measured in a Beckman LS 6000 series liquid scintillation counter.

E. coli β-glucuronidase = E. coli β-glucuronidase (Escherichia coli, UniProt P05804); assay: cleavage of compound 22 by β-glucuronidase in βG buffer, HPLC; type: biochemical; details: E. coli β-glucuronidase 1 μg/ml, 37° C.
Protocol: The proactive compound can also be tested as to its ability to be cleaved by β-glucuronidase. Specifically, the enzyme and the tested compound are both added to […]. Aliquots are then taken out and evaluated in a similar fashion as described above.
as §1
500 μl of compound 22 (116 μM) in βG buffer (100 mM acetic acid, 50 mM bis-tris, 50 mM triethanolamine, pH 7.0) was incubated with E. coli β-glucuronidase (1 μg/ml) at 37° C. Aliquots (30 μl) withdrawn after 0, 1, 2, 3, and 5 minutes was mixed with 300 μl of ethyl acetate, and acidified by addition of 12 mM phosphoric acid (270 μl). […] The recovery of compounds 22 and 17 from βG buffer […] were about 90% and 80%, respectively. Samples were suspended in 150 μl of mobile phase (45% methanol/25 mM phosphate buffer, pH 2.5) and analyzed by HPLC.

E. coli β-glucuronidase, sequence (P05804 whole entry): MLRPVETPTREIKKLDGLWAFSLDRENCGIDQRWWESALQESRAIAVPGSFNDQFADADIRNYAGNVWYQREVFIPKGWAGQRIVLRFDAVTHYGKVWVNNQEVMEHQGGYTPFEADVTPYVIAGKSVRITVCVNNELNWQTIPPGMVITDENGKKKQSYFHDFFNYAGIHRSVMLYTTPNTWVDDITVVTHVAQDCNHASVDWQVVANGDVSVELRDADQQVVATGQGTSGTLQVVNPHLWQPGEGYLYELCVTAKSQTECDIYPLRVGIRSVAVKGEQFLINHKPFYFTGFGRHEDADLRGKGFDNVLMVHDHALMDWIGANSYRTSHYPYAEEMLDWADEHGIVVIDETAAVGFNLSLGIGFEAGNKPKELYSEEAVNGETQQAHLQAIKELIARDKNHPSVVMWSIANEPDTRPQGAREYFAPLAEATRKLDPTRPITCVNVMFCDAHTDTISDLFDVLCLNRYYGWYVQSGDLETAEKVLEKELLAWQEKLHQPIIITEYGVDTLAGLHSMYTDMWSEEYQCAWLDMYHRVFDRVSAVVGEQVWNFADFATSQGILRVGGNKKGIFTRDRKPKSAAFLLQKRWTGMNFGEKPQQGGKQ

Compound | half life in serum [1] | cytotoxicity relative to compound 17 ([2]; compound alone (no β-glucuronidase)) | change of level of protein synthesis ([2]; compound alone (no β-glucuronidase), 100 nM, 96 hours, 37° C., 5% fetal calf serum) | cytotoxicity relative to compound 17 ([2]; upon activation by glucuronidase) | decrease of level of protein synthesis ([2]; with β-glucuronidase, 100 nM, 96 hours, 37° C., 5% fetal calf serum) [fold] | conversion into moiety (3) upon activation by glucuronidase (E. coli β-glucuronidase) | absorbance of compound 22 after incubation with β-glucuronidase (E. coli β-glucuronidase; after 3 minutes, compound 22 116 μM, βG buffer pH 7.0) | decrease of level of protein synthesis ([2]; compound alone, 100 nM, 96 hours, 37° C., 5% fetal calf serum) [fold] | absorbance of compound 17 released from compound 22 by β-glucuronidase (E. coli β-glucuronidase; 0-5 minutes, compound 22 116 μM, βG buffer pH 7.0)
CC[C@@]1(O)C(=O)OCc2c1cc1n(c2=O)Cc2cc3c(NC(=O)OCc4ccc(O[C@@H]5O[C@H](C(=O)O)[C@@H](O)[C@H](O)[C@H]5O)cc4)cccc3nc2-1 [Compound 22] | surprisingly long half life in serum | much less cytotoxic than compound 17 | did not change | almost as cytotoxic as compound 17 | ~4 | converted into its moiety (3), i.e., compound 17 | almost undetectable | – | –
CC[C@@]1(O)C(=O)OCc2c1cc1n(c2=O)Cc2cc3c(N)cccc3nc2-1 [Compound 17, reference compound] | – | – | – | – | – | – | – | ~4 | increased in the first three minutes and reached a steady level after the third minute
